Laboratory results taken from patent publication US5817641A, “Treatment of enterotoxigenic diarrhea with 2-substituted adenosine derivatives” (priority 1997, dated 1998).

How the values were obtained:
[1] = molecular target: T1, guanylyl cyclase C (GC-C) (Rattus norvegicus, UniProt P23897); experiment: biochemical; format: biochemical; settings: for maximum inhibition of guanylyl cyclase: with or without ST; for inhibition at 1000 µM: read-out: decrease of Vmax of guanylyl cyclase; for guanylyl cyclase activation by peptide: 10 μM peptide, presence or absence of 1 mM ATP
T1 construct: The mucosal layer was scraped from the intestine and homogenized; from tissue; host or cells: small intestinal mucosa of Sprague-Dawley rats (100,000×g washed membrane pellet)
Method: Membranes were prepared from rat intestinal mucosa cells as described previously (Gazzano et al., (1991) Infect. Immun., 59, 1552-1557, which is incorporated herein by reference). Briefly, Sprague-Dawley rats were sacrificed, small intestine removed and rinsed in ice-cold 0.9% NaCl. All procedures were conducted at 4° C. The mucosal layer was scraped from the intestine and homogenized in 50 mM Tris-HCl (pH 7.6) containing 1 mM dithiothreitol, 1 mM EDTA and 1 mM phenylmethylsulfonyl fluoride, (TED) supplemented with 0.25M sucrose (TEDS). Homogenates were centrifuged at 100,000×g for 60 minutes and the resulting pellet was sequentially washed in (i) TED supplemented with 0.5M KCl, (ii) TED:TEDS (1:1) and (iii) TED. The final pellet was homogenized in TED at a protein concentration of 5-10 mg/mL and aliquots were stored at -70° C.
Guanylyl cyclase activity was assayed as described previously (Waldman et al., (1984) J. Infect. Dis., 149, 83-89, which is incorporated herein by reference). Membranes were incubated at 37° C. in a final volume of 100 μl in the presence of 50 mM Tris-HCl (pH 7.6) containing 10 mM theophylline, 7.5 mM creatine phosphate/[…] creatine phosphokinase (160 U/mg of protein), GTP, manganese or magnesium cofactor (2 mM in excess of nucleotide) and ST and/or adenine nucleotide where indicated. Reactions were initiated by addition of membrane, incubated 5 minutes and terminated by adding 400 μl of 50 mM sodium acetate (pH 4.0) and boiling for 5 minutes. Following acetylation, samples were diluted with 50 mM NaAc containing 20 mM CaCl2. Generated cGMP was quantified by radioimmunoassay as described previously (Waldman et al., (1984) J. Infect. Dis., 149, 83-89). Radioimmunoassays were performed in triplicate, enzyme reactions were performed in duplicate, and results are representative of at least 3 experiments. Enzyme activity was linear with respect to protein concentration and time for all experiments.
Protein concentration was measured by the method of Bradford (Bio-Rad) using bovine serum albumin as standard (Bradford, M. M., (1976) Anal. Biochem., 72, 248-254). All assays were performed in duplicate and data are representative of at least 3 experiments. Values reported for the S0.5 and Vmax are equivalent to the concentration of substrate yielding half-maximum guanylyl cyclase activity and the maximum velocity of the enzyme activity, respectively. All nucleotides were obtained from Sigma, except 2-chloroadenosine 5'-triphosphate (2ClATP) which were from Research Biochemicals Incorporated (Natick, Mass.).

ST receptor (GC-C) = experiment: ST receptor binding assay ([125I]-ST) in rat intestinal membranes; settings: 1 mM nucleotide, presence or absence of GTP and magnesium
Method: Membranes were prepared from rat intestinal mucosa cells as described previously (Gazzano et al., (1991) Infect. Immun., 59, 1552-1557, which is incorporated herein by reference). Briefly, Sprague-Dawley rats were sacrificed, small intestine removed and rinsed in ice-cold 0.9% NaCl. All procedures were conducted at 4° C. The mucosal layer was scraped from the intestine and homogenized in 50 mM Tris-HCl (pH 7.6) containing 1 mM dithiothreitol, 1 mM EDTA and 1 mM phenylmethylsulfonyl fluoride, (TED) supplemented with 0.25M sucrose (TEDS). […]
ST binding was quantified as described previously (Hugues et al., (1991) Biochemistry, 30, 10738-10745, which is incorporated herein by reference). […] Parallel incubations contained excess (10^-6 M) unlabeled ST to quantify non-specific binding. Reaction mixtures were incubated for 40 minutes at 37° C. and bound [^125 I]-ST was separated from free ligand by vacuum filtration through Whatman (GF/B glass fiber filters pretreated with 0.3% polyethyleneimine. Filters were washed with 10 ml of 20 mM phosphate-buffered saline (pH 7.2) containing 1 mM EDTA. Radioactivity which remained on the filter was quantified in a Packard γ-counter. Specific binding was determined by subtracting non-specific binding from the total [^125 I]-ST bound in the absence of unlabeled ligand. Non-specific binding was routinely less than 20% of total binding.

[2] = test system: GC-C in membranes from T84 and Caco 2 cells; experiment: Guanylyl cyclase activity in membranes prepared from T84 and Caco 2 cells; format: biochemical
Description: Guanylyl cyclase C undergoes post-translations processing yielding multiple ST-binding proteins detected in crosslinking studies utilizing ^125 I-ST or by Western blot analysis (Vaandrager et al., (1993) J. Biol. Chem., 268, 2174-2179; Vaandrager et al., (1993) J. Biol. Chem., 268, 19598-19603; Ivens et al., (1990) Infect. Immun., 58, 1817-1820; de Sauvage et al., (1993) J. Biol. Chem., 267, 6479-6482; Cohen et al., (1993) J. Cell. Physiol., 156, 138-144). Post-translational processing of GC-C appears to reflect heterogenicity of glycosylation and proteolysis. Processing has been observed in membranes examined from intestinal mucosal cells, intestinal cells grown in vitro, and mammalian cells expressing cloned rat or human GC-C. Thus, the shift in apparent cooperativity with associated changes in Hill coefficients induced by 2-substituted adenine nucleotides could reflect differences in their effects on different populations of GC-C in intestinal membranes. Guanylyl cyclase C is the predominant, […], member of the particulate guanylyl cyclase family expressed by T84 and Caco 2 cells in vitro (Vaandrager et al., (1992) Gastroenterology, 102, 1161-1169). […]

P2y purinergic receptors = settings: cited from earlier work
[3] = magnesium cofactor, basal and ST (1 μM)-activated
[4] = manganese cofactor (1.6 without nucleotide)

T1 sequence (P23897 23-1072): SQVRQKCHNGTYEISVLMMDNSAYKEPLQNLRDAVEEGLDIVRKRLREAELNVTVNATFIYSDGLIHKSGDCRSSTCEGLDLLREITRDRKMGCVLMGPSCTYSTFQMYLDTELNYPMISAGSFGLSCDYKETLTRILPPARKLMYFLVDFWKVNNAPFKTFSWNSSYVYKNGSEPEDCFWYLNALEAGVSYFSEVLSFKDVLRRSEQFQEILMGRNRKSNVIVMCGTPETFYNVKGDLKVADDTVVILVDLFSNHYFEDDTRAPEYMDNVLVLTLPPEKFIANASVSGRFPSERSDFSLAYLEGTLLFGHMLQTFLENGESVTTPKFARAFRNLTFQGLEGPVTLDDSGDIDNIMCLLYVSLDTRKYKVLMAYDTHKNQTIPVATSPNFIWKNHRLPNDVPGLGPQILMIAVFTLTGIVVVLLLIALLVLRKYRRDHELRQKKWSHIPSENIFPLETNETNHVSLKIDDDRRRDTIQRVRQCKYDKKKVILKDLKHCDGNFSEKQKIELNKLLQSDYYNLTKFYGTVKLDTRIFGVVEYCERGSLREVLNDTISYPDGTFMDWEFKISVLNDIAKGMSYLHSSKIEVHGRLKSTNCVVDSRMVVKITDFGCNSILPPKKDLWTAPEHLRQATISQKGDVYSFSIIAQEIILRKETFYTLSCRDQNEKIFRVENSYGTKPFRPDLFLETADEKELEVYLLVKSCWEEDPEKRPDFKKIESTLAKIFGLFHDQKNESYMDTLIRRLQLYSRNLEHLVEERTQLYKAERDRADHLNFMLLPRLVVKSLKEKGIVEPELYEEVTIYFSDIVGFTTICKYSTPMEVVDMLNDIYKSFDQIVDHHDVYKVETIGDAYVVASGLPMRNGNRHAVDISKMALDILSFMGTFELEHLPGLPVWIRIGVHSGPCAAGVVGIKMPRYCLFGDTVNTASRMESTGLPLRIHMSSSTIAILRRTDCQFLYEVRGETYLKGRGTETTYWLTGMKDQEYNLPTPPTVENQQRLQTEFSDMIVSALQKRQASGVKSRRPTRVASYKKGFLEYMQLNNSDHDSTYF

Nc1nc(Cl)nc2c1ncn2[C@@H]1O[C@H](COP(=O)(O)OP(=O)(O)OP(=O)(O)O)[C@@H](O)[C@H]1O [2ClATP, 2-chloroadenosine 5'-triphosphate]
Ki ([1]; Ki (concentration yielding half-maximum inhibition)): 300 µM
guanylyl cyclase activity inhibited ([1]; in the presence of maximally activating concentrations of AMPS): > 95%
Ki values in the presence or absence of ST ([1]; magnesium cofactor): not significantly different
effect on guanylyl cyclase activity [1, 3]: inhibited guanylyl cyclase activity
maximum inhibition of guanylyl cyclase ([1]; magnesium cofactor): > 95%
effect on guanylyl cyclase activity ([1]; manganese cofactor): inhibited guanylyl cyclase in a concentration-dependent fashion
guanylyl cyclase activity inhibited ([1]; manganese cofactor): > 95%
Ki when AMPS is incorporated in enzyme incubations ([1]; with maximally activating AMPS (3 mM)): unchanged
specific binding of [125I]-ST to intestinal membranes (ST receptor (GC-C)): unchanged

Nc1nc(Cl)nc2c1ncn2[C@@H]1O[C@H](CO)[C@@H](O)[C@H]1O [2ClAdo]
effect on guanylyl cyclase activity ([1]; manganese cofactor): did not significantly inhibit guanylyl cyclase

CSc1nc(N)c2ncn([C@@H]3O[C@H](COP(=O)(O)OP(=O)(O)OP(=O)(O)O)[C@@H](O)[C@H]3O)c2n1 [2MeSATP]
effect on cooperativity of GC-C [2]: shift from positive to negative cooperativity
inhibition of GC-C [2]: potently inhibited GC-C
Ki ([1]; Ki for inhibition of guanylyl cyclase, 20 μM GTP): 390 ± 260 µM
Ki ([1]; Ki for inhibition of guanylyl cyclase, 1000 μM GTP): 280 ± 180 µM
Ki values in the presence or absence of ST ([1]; magnesium cofactor): not significantly different
Hill coefficient of guanylyl cyclase in the presence of nucleotide ([1]; magnesium cofactor, 1 mM nucleotide, presence and absence of ST): about 1.0
effect on guanylyl cyclase activity [1, 3]: inhibited guanylyl cyclase activity
maximum inhibition of guanylyl cyclase ([1]; magnesium cofactor): > 95%
effect on Vmax and S0.5 ([1]; magnesium cofactor, nucleotide 1 mM, presence or absence of ST): lowered the Vmax without significantly changing the S0.5
effect on guanylyl cyclase activity ([1]; manganese cofactor): inhibited guanylyl cyclase in a concentration-dependent fashion
guanylyl cyclase activity inhibited ([1]; manganese cofactor): > 95%
Hill coefficient of guanylyl cyclase in the presence of nucleotide [1, 4]: 0.7
effect on S0.5 ([1]; manganese cofactor, 1 mM nucleotide): only a small effect on the S0.5
inhibition at 1000 µM [1]: > 90%

Nc1ncnc2c1ncn2[C@@H]1O[C@H](COP(=O)(O)OP(O)(O)=S)[C@@H](O)[C@H]1O [ADPβS, adenosine 5'-O-(2-thiodiphosphate), reference compound]
ligand potency for P2y receptors (P2y purinergic receptors): potent ligand for P2y receptors

Nc1ncnc2c1ncn2[C@@H]1O[C@H](COP(=O)(O)CP(=O)(O)OP(=O)(O)O)[C@@H](O)[C@H]1O [AMPCPP, α,β-methylene adenosine 5'-triphosphate, reference compound]
ligand potency for P2y receptors (P2y purinergic receptors): poor ligand for P2y receptors

Nc1ncnc2c1ncn2[C@@H]1O[C@H](COP(O)(O)=S)[C@@H](O)[C@H]1O [AMPS, adenosine 5'-O-thiomonophosphate, reference compound]
effect on guanylyl cyclase activity [1, 3]: potentiated guanylyl cyclase activation by ST in a concentration-dependent fashion
effect on guanylyl cyclase activity ([1]; manganese cofactor): did not significantly inhibit guanylyl cyclase
Ka to potentiate ST-activation of guanylyl cyclase when 2ClATP is incorporated ([1]; with 2ClATP at 0.3 mM): unchanged

Nc1ncnc2c1ncn2[C@@H]1O[C@H](COP(=O)(O)OP(=O)(O)OP(=O)(O)O)[C@@H](O)[C@H]1O [ATP, reference compound]
effect on guanylyl cyclase activity [1, 3]: activated guanylyl cyclase in a concentration-dependent manner but with a lower efficacy than ATPγS
effect on guanylyl cyclase activity ([1]; manganese cofactor): inhibited guanylyl cyclase in a concentration-dependent fashion
Hill coefficient of guanylyl cyclase in the presence of nucleotide [1, 4]: less than 1.0
S0.5 of guanylyl cyclase in the presence of nucleotide ([1]; manganese cofactor, 1 mM nucleotide (0.08 mM without)): 0.25 mM
concentration at which the nucleotide inhibits guanylyl cyclase activity (biphasic dose-response) ([1]; rat intestinal membranes): above 1 mM
inhibition at 1000 µM [1]: 80%

Nc1ncnc2c1ncn2[C@@H]1O[C@H](CO[P@](=O)(O)O[P@](=O)(O)O[P@@](=O)(O)S)[C@@H](O)[C@H]1O [ATPγS, adenosine 5'-O-(3-thiotriphosphate), reference compound]
maximal activation of guanylyl cyclase ([1]; magnesium cofactor, in the presence of ST (1 μM)): 2- to 3 fold
effect on guanylyl cyclase activity ([1]; manganese cofactor): inhibited guanylyl cyclase in a concentration-dependent fashion

ANP: atrial natriuretic peptides, ligand of GC-A [reference compound]
guanylyl cyclase activation by peptide [1]: did not exhibit guanylyl cyclase activation

CNP: C-type natriuretic peptide, ligand of GC-B [reference compound]
guanylyl cyclase activation by peptide [1]: did not exhibit guanylyl cyclase activation
